Values joined by “and” are separate entries in the source; they are usually repeats but may differ in a detail not shown here. Equal values may be shown once. Read-outs that look alike come from different tables or passages of the source.
Tests used:
KRAS G12V = KRAS G12V (Homo sapiens (Human), UniProt P01116+P62937, G12V); test: Ras-Raf disruption/FRET/MOA assay (BRAF RBD, Cyclophilin A); type: biochemical; details: read-out: KRAS G12V FRET IC50
Summary of the method: (§1)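 Ras-GMPPNP (12.5 nM), BRAF RBD (50 nM) and 25 μM Cyclophilin A were incubated with compound for 3 h at 25° C, then detected 1.5 h with anti-His Eu and anti-GST APC; IC50 values follow from the reduced TR-FRET ratio.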

KRAS G13D = KRAS G13D (Homo sapiens (Human), UniProt P01116+P62937, G13D); test: as above; type: biochemical; details: read-out: KRAS G13D FRET data IC50
Summary of the method: as §1

KRAS WT = KRAS WT (Homo sapiens (Human), UniProt P01116+P62937); test: as above; type: biochemical; details: read-out: KRAS WT FRET data IC50
Summary of the method: as §1

KRAS G13C = KRAS G13C (Homo sapiens (Human), UniProt P01116+P62937, G13C); test: as above; type: biochemical; details: read-out: KRAS G13C FRET IC50
Summary of the method: as §1

KRAS G12S = KRAS G12S (Homo sapiens (Human), UniProt P01116+P62937, G12S); test: as above; type: biochemical; details: read-out: KRAS G12S FRET IC50
Summary of the method: as §1

NRAS Q61K = NRAS Q61K (Homo sapiens (Human), UniProt P01111+P62937, Q61K); test: as above; type: biochemical
Summary of the method: (§2)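 First, 25 μM Cyclophilin A, 12.5 nM His6-Ras-GMPPNP and 50 nM GST-BRAF RBD are mixed with diluted compound at pH 7.3. Next, 3 h at 25° C. Then 10 nM anti-His Eu-W1024 plus 50 nM anti-GST allophycocyanin for 1.5 h before TR-FRET reading.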

KRAS G12D = KRAS G12D (Homo sapiens (Human), UniProt P01116+P62937, G12D); test: as above; type: biochemical; details: read-out: KRAS G12D FRET IC50
Summary of the method: as §1

NRAS WT = NRAS WT (Homo sapiens (Human), UniProt P01111+P62937); test: as above; type: biochemical
Summary of the method: as §2

KRAS G12C = KRAS G12C (Homo sapiens (Human), UniProt P01116+P62937, G12C); test: as above; type: biochemical; details: read-out: KRAS G12C FRET IC50
Summary of the method: as §1

NRAS G12C = NRAS G12C (Homo sapiens (Human), UniProt P01111+P62937, G12C); test: as above; type: biochemical; details: read-out: NRAS G12C FRET data IC50
Summary of the method: as §2

[1] = test system: Capan-1 cells (K-Ras G12V); test: CellTiter-Glo cell viability, Capan-1; type: cell-based, human; details: K-Ras G12V, 5-day treatment, read-out: Capan-1 Cell Viability IC50
Summary of the method: (§3)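 Compounds were dispensed directly onto seeded cells and incubated until day 5, then plates were equilibrated at room temperature for about 30 min before CellTiter-Glo luminescence readout. Signals were normalized as (sample/average DMSO)×100 and fitted with a four-parameter logistic model.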

[2] = test system: NCI-H358 cells (K-Ras G12C); test: CellTiter-Glo cell viability, NCI-H358; type: cell-based, human; details: K-Ras G12C, 5-day treatment, read-out: H358 Cell Viability IC50
Summary of the method: as §3

[3] = test system: K-Ras G12C (NCI-H358 cells); test: Potency assay: pERK in NCI-H358 cells; type: cell-based, human; details: Homo sapiens; NCI-H358 cells, 4 hours; read-out: pERK EC50 (H358 KRAS G12C)
Summary of the method: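 Cells plated the day before were exposed for 4 h at 37° C, 5% CO2 to a 10-point, 3-fold DMSO dilution series (10 mM top stock), in duplicate. Phospho-ERK was read by AlphaLISA SureFire Ultra or by In-Cell Western with DRAQ5 DNA stain, and IC50 came from a 4-parameter sigmoidal fit.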

[4] = biological target: K-Ras G12C(GMP-PNP) binding to BRAF RBD (Homo sapiens (Human), UniProt P01116+P62937, G12C); test: Disruption of BRAF RBD interaction with K-Ras (FRET / MOA assay), K-Ras G12C; type: biochemical; details: read-out: KRAS G12C FRET IC50
Summary of the method: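 Incubation of compound (up to 30 μM final, 3-fold steps) with GMP-PNP-type loaded Ras isoform, cyclophilin A and BRAF RBD ran 3 h at 25° C, followed by 1.5 h with detection antibodies. Disruption appears as a reduced TR-FRET ratio compared with DMSO controls, expressed as IC50.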

NCI-H358 (K-Ras G12C) = test: CellTiter-Glo cell viability assay, NCI-H358; type: cell-based, human; details: Homo sapiens, NCI-H358, 120 h, 5-day treatment; read-out: H358 Cell Viability assay data (K-Ras G12C, IC50)
Summary of the method: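 NCI-H358 cells were treated with test compounds dispensed directly into the assay wells and incubated until day 5. Viability was then read by CellTiter-Glo luminescence after a ~30 min room-temperature equilibration, normalized to the DMSO average (×100), and fit with a four-parameter logistic curve.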

KRAS Q61H = KRAS Q61H (Homo sapiens (Human), UniProt P01116+P62937, Q61H); test: Ras-Raf disruption/FRET/MOA assay (BRAF RBD, Cyclophilin A); type: biochemical
Summary of the method: as §1

KRAS G12S, sequence (P01116 other isoform, or with tags, fused parts or gaps G12S): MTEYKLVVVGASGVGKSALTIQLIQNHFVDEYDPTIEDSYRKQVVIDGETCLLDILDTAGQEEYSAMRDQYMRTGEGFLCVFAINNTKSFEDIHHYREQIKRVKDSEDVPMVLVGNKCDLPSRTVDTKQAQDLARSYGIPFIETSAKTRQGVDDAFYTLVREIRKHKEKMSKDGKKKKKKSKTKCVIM
KRAS G12S, sequence (P62937 whole entry): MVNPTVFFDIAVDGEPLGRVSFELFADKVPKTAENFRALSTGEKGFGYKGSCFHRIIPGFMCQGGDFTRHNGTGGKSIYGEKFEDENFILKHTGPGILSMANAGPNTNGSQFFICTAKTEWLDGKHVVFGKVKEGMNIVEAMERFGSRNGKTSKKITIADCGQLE
KRAS G12V, sequence (P01116 other isoform, or with tags, fused parts or gaps G12V): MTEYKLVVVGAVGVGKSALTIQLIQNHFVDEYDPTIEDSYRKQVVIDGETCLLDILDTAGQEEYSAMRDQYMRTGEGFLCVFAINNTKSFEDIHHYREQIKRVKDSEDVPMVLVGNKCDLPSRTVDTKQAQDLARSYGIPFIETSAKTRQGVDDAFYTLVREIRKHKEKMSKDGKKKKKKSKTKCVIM
KRAS G12V, sequence (P62937 whole entry): as the sequence (P62937 whole entry) above
KRAS G12D, sequence (P01116 other isoform, or with tags, fused parts or gaps G12D): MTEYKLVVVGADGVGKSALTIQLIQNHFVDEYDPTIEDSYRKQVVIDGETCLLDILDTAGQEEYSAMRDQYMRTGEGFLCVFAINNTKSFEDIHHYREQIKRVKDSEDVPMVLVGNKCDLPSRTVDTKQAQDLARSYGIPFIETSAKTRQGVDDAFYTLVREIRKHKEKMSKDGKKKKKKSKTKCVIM
KRAS G12D, sequence (P62937 whole entry): as the sequence (P62937 whole entry) above
KRAS WT, sequence (P01116 other isoform, or with tags, fused parts or gaps): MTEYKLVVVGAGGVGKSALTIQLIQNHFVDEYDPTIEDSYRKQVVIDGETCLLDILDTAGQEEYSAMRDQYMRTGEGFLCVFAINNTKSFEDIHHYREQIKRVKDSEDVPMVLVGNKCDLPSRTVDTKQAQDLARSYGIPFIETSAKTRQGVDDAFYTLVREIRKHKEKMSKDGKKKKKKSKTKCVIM
KRAS WT, sequence (P62937 whole entry): as the sequence (P62937 whole entry) above
NRAS G12C, sequence (P01111 whole entry G12C): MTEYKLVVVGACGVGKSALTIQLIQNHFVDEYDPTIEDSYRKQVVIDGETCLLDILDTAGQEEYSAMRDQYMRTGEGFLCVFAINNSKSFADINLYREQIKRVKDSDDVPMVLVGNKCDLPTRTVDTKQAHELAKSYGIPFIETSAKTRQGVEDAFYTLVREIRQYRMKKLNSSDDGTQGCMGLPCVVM
NRAS G12C, sequence (P62937 whole entry): as the sequence (P62937 whole entry) above
KRAS G12C, sequence (P01116-2 other isoform, or with tags, fused parts or gaps G12C): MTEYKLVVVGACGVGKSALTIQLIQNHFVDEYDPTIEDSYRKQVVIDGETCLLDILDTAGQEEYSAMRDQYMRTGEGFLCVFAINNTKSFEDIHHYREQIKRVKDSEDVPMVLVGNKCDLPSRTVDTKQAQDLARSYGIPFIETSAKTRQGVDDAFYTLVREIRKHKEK
KRAS G12C, sequence (P62937 whole entry): as the sequence (P62937 whole entry) above
NRAS Q61K, sequence (P01111 whole entry Q61K): as the sequence (P01111 whole entry G12C) above, with C12G, Q61K counted along it
NRAS Q61K, sequence (P62937 whole entry): as the sequence (P62937 whole entry) above
KRAS G13C, sequence (P01116 other isoform, or with tags, fused parts or gaps G13C): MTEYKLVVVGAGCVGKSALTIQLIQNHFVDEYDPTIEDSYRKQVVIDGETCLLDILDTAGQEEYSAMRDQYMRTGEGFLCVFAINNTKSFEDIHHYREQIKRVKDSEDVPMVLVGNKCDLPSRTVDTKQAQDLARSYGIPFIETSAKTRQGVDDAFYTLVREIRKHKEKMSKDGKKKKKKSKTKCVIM
KRAS G13C, sequence (P62937 whole entry): as the sequence (P62937 whole entry) above
KRAS G13D, sequence (P01116 other isoform, or with tags, fused parts or gaps G13D): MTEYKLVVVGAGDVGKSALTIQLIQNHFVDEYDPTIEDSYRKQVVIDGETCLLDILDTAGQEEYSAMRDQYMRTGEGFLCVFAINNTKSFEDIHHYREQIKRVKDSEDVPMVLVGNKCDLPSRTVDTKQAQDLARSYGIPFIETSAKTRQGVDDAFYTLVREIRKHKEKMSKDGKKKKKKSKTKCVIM
KRAS G13D, sequence (P62937 whole entry): as the sequence (P62937 whole entry) above
NRAS WT, sequence (P01111 whole entry): as the sequence (P01111 whole entry G12C) above, with C12G counted along it
NRAS WT, sequence (P62937 whole entry): as the sequence (P62937 whole entry) above
K-Ras G12C(GMP-PNP) binding to BRAF RBD, sequence (P01116 other isoform, or with tags, fused parts or gaps G12C): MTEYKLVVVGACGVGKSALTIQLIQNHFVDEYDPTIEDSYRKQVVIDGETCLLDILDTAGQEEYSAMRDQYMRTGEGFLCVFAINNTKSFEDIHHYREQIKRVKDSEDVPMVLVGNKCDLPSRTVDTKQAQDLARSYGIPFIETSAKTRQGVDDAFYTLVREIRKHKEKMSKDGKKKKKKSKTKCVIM
K-Ras G12C(GMP-PNP) binding to BRAF RBD, sequence (P62937 whole entry, canonical isoform): as the sequence (P62937 whole entry) above
KRAS Q61H, sequence (P01116 other isoform, or with tags, fused parts or gaps Q61H): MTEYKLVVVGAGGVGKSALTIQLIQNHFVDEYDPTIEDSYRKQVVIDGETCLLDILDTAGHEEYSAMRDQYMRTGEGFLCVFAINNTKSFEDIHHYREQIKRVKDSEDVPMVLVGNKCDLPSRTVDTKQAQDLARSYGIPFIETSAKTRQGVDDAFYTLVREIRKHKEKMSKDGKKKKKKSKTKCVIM
KRAS Q61H, sequence (P62937 whole entry): as the sequence (P62937 whole entry) above

SMILES | IC50 (KRAS G12V) [nM] | IC50 (KRAS G13D) [nM] | IC50 (KRAS WT) [nM] | IC50 (KRAS G13C) [nM] | IC50 (KRAS G12S) [nM] | IC50 (NRAS Q61K) [nM] | IC50 (KRAS G12D) [nM] | IC50 (NRAS WT) [nM] | IC50 (KRAS G12C) | IC50 (NRAS G12C) [nM] | IC50 ([1]; Homo sapiens, CAPAN-1, 120 h) [nM] | IC50 ([2]; Homo sapiens, NCI-H358, 120 h) [nM] | EC50 [3] [nM] | IC50 [4] [nM] | IC50 (NCI-H358 (K-Ras G12C)) [nM] | IC50 (KRAS Q61H) [nM] | IC50 [1] [nM] | IC50 [2] [nM]
CO[C@@H](C)c1ncccc1-c1c2c3cc(ccc3n1C)-c1cc(O)cc(c1)C[C@H](NC(=O)[C@H](C(C)C)N(C)C(C)=O)C(=O)N1CCC[C@H](N1)C(=O)OCC(C)(C)C2 [Compound A104] | > 10000 | > 10000 | > 10000 | 1000 to 10000 | > 10000 | 1000 to 10000 | > 10000 | 1000 to 10000 | 1000 to 10000 nM and > 10000 nM | > 10000 | > 10000 | 1000 to 10000 | < 5000 |  |  |  |  | 
CCn1c(-c2cccnc2[C@H](C)OC)c2c3cc(ccc31)-c1cc(O)cc(c1)C[C@H](NC(=O)[C@H](C(C)C)N(C)C(=O)C1(C(=O)O)CC1)C(=O)N1CCC[C@H](N1)C(=O)OCC(C)(C)C2 [Compound A150] | > 10000 | > 10000 | 1000 to 10000 | 1000 to 10000 | > 10000 | 1000 to 10000 | > 10000 | 1000 to 10000 | 1000 to 10000 nM | 1000 to 10000 | > 10000 |  |  | 10 to 100 | < 10 |  |  | 
CCn1c(-c2cccnc2[C@H](C)OC)c2c3cc(ccc31)-c1csc(n1)C[C@H](NC(=O)[C@H](C(C)C)N1CCC3(CN(S(C)(=O)=O)C3)C1=O)C(=O)N1CCC[C@H](N1)C(=O)OCC(C)(C)C2 [Compound A234] | > 10000 | > 10000 | 1000 to 10000 | 1000 to 10000 | > 10000 | 1000 to 10000 | > 10000 | 1000 to 10000 |  | > 10000 | > 10000 |  |  |  |  |  |  | 
CCn1c(-c2cccnc2[C@H](C)OC)c2c3cc(ccc31)-c1csc(n1)C[C@H](NC(=O)[C@H](C(C)C)N(C)C(=O)N1CC(OC)C1)C(=O)N1CCC[C@H](N1)C(=O)OCC(C)(C)C2 [Compound A354] | 100 to 1000 | 1000 to 10000 |  | 100 to 1000 | 100 to 1000 | 100 to 1000 | 1000 to 10000 |  | 100 to 1000 nM | 100 to 1000 |  |  |  |  |  | 100 to 1000 | 100 to 1000 | 100 to 1000

Reference: patent US20250195521A1 (Revolution Medicines, Inc., priority 2020, published 2025)
